Laboratory results from US8669266B2, “Quinoline-carboxamide derivatives as P2Y12 antagonists” (Sanofi, priority 2007, dated 2014).

Tests used:
[1] = test system: human platelet rich plasma; experiment: Inhibition of human platelet aggregation, "Born"-method in single cuvettes (ADP-induced, platelet rich plasma); type: cell-based; conditions: human PRP, aggregation induced by ADP, measured over 6 minutes at 37° C.
Description: Alternatively to a binding assay which measures a compound's ability to bind to the P2Y12 receptor, the effect on cellular function was also determined. This ability of the compound was evaluated in two platelet aggregation assays: in 96-well plates and with the “Born”-method using single cuvettes.
Whole blood was collected from healthy volunteers using 20 ml syringes containing 2 ml of buffered Citrate. The anticoagulated whole blood was transferred into 15 ml polypropylene conical tubes (10 ml per tube). The tubes were centrifuged for 15 minutes at 340×g at RT without using the centrifuge brake. This procedure leads to a pellet of cellular components and a supernatant of platelet rich plasma (PRP). The PRP layer was collected from each tube and pooled for each donor. To avoid carry over of cellular components following centrifugation, approximately 5 ml of PRP was left in the tube. The platelet concentration was determined using a Coulter Counter.
The 15 ml tubes containing the pellet of cellular components were centrifuged again for 10 minutes at 1940×g. This pelleted out most particulate blood constituents remaining, leaving a layer of Platelet Poor Plasma (PPP). The PPP was collected for each donor. The PRP layer, previously set aside, was diluted with PPP to a final concentration of approximately 3×E8 platelets/ml with the PPP.
The human platelet aggregation assay is performed in single use cuvettes using the platelet aggregation profiler (PAP-4 or -8, Bio/Data corporation).
In the assay cuvette 4 μl of test compound at 100× final concentration in DMSO is mixed with 392 μl fresh PRP and incubated for 2 minutes at 37° C. with 1.200 rpm stirring. Following that incubation period, 4 μl of 250 μM ADP is added to the reaction mix. This addition of ADP is sufficient to induce aggregation in the absence of an inhibitor. After that aggregation is measured over 6 minutes at 37° C. with 1.200 rpm stirring. Results of the assay are expressed as % inhibition, and are calculated using maximum aggregation (Tmax) or area under curve (AUC) of the absorbance over 6 minutes.

[2] = molecular target: human P2Y12 receptor (Homo sapiens (Human), UniProt Q9H244); experiment: Human P2Y12 recombinant cell membrane binding assay with 33P 2MeS-ADP; conditions: CHO cell membranes with recombinant human P2Y12; competition against 33P 2MeS-ADP
Description: The ability of the compounds of the formula I to inhibit the P2Y12 receptor can be assessed by determining the concentration of the compound of the formula I that binds to the human P2Y12 Recombinant Cell Membrane Binding Assay with 33P 2MeS-ADP.
Human P2Y12 Recombinant Cell Membrane Binding Assay
The ability of a test compound to bind to the P2Y12 receptor was evaluated in a recombinant cell membrane binding assay. In this competitive binding assay, the test compound competed against a radiolabeled agonist for binding to the P2Y12 receptor, expressed on the cell membrane. Inhibition of binding of the labeled material was measured and correlated to the amount and potency of the test compound.
As source of P2Y12, a membrane preparation was prepared from Chinese Hamster Ovary (CHO) cells with recombinant expression of the human P2Y12 receptor according to standard procedures.
Next, wells were washed four times with 400 μl/well of stop buffer on a plate vacuum. The plate was disassembled and allowed to air dry overnight with the filter side up over night. […] The top of the filter plate was sealed with plastic plate covers. The sealed filter plate were incubated 2 hours at RT. A Microbeta Scintillation Counter was used to measure counts.
Compounds were diluted as 10 mM DMSO stocks and tested in a four-point, five-fold dilution series run in triplicate beginning at 10 μM, final concentration. Data were analyzed using a four-parameter curve fit with a fixed minimum and maximum experimentally defined as the average positive and negative controls on each plate.

Chain of human P2Y12 receptor (Q9H244 whole entry): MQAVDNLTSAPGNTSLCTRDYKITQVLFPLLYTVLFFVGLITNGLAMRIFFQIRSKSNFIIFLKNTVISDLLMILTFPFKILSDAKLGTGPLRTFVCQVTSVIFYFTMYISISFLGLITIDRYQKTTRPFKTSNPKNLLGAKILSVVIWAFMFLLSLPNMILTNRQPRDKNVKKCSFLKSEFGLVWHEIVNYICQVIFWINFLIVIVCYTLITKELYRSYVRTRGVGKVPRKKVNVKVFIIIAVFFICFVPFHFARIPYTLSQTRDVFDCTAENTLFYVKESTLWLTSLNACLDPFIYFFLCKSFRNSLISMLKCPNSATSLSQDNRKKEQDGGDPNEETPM

Compound “4-{2-[(7-Methyl-4-{2-oxo-2-[4-(pyrrolidine-1-carbonyl)-piperidin-1-yl]-ethoxy}-quinoline-2-carbonyl)-amino]-acetyl}-piperazine-1-carboxylic acid butyl ester [Example 660]” has an IC50 [1] of 94 nM.
For `CCOC(=O)N1CCN(C(=O)[C@H](CCC(=O)O)NC(=O)c2cc(OCC(=O)N3CCC[C@H]3C(=O)NC3CC3)c3ccc(C)cc3n2)CC1` [Example 3, 4-[(S)-4-Carboxy-2-({4-[2-((S)-2-cyclopropylcarbamoyl-pyrrolidin-1-yl)-2-oxo-ethoxy]-7-methyl-quinoline-2-carbonyl}-amino)-butyryl]-piperazine-1-carboxylic acid ethyl ester], the IC50 ([1]; Platelet, 0.1 h) was 180 nM.
With `CCOC(=O)[C@@H]1CCCN1C(=O)COc1cc(C(=O)N[C@@H](CCC(=O)O)C(=O)N2CCN(C(=O)OCC)CC2)nc2cc(C)ccc12` [Example 11, 4-[(S)-4-Carboxy-2-({4-[2-((S)-2-ethoxycarbonyl-pyrrolidin-1-yl)-2-oxo-ethoxy]-7-methyl-quinoline-2-carbonyl}-amino)-butyryl]-piperazine-1-carboxylic acid ethyl ester] the IC50 [2] was 132 nM.
Work on `CCOC(=O)N1CCN(C(=O)[C@H](CCC(=O)O)NC(=O)c2cc(OCC(=O)N3CCC[C@H]3C(=O)O)c3ccc(C)cc3n2)CC1` [Example 17, 4-[(S)-4-Carboxy-2-({4-[2-((S)-2-carboxy-pyrrolidin-1-yl)-2-oxo-ethoxy]-7-methyl-quinoline-2-carbonyl}-amino)-butyryl]-piperazine-1-carboxylic acid ethyl ester] yielded an IC50 ([1]; Platelet, 0.1 h) of 240 nM.
`CCOC(=O)N1CCN(C(=O)[C@H](CCC(=O)O)NC(=O)c2cc(OCC(=O)N3CCC(S(C)(=O)=O)C3)c3ccc(C)cc3n2)CC1` (stereo partly drawn) [Example 18, 4-[(S)-4-Carboxy-2-({4-[2-(3-methanesulfonyl-pyrrolidin-1-yl)-2-oxo-ethoxy]-7-methyl-quinoline-2-carbonyl}-amino)-butyryl]-piperazine-1-carboxylic acid ethyl ester] was tested, and the IC50 ([1]; Platelet, 0.1 h) was 160 nM.
Compound `CCOC(=O)N1CCN(C(=O)[C@H](CCC(=O)O)NC(=O)c2cc(OCC(=O)N3CC[C@H](CO)C3)c3ccc(C)cc3n2)CC1` [Example 50, 4-[(S)-4-Carboxy-2-({4-[2-((S)-3-hydroxymethyl-pyrrolidin-1-yl)-2-oxo-ethoxy]-7-methyl-quinoline-2-carbonyl}-amino)-butyryl]-piperazine-1-carboxylic acid ethyl ester] has an IC50 ([1]; Platelet, 0.1 h) of 590 nM.
In the case of `CCOC(=O)N1CCN(C(=O)[C@H](CCC(=O)O)NC(=O)c2cc(OCC(=O)N3CC(O)CC3C(=O)OC)c3ccccc3n2)CC1` (stereo partly drawn) [Example 71, 4-[(S)-4-Carboxy-2-({4-[2-(4-hydroxy-2-methoxycarbonyl-pyrrolidin-1-yl)-2-oxo-ethoxy]-quinoline-2-carbonyl}-amino)-butyryl]-piperazine-1-carboxylic acid ethyl ester], the IC50 ([1]; Platelet, 0.1 h) is reported as 310 nM.
`CCOC(=O)[C@@H]1C[C@@H](O)CN1C(=O)COc1cc(C(=O)N[C@@H](CCC(=O)O)C(=O)N2CCN(C(=O)OCC)CC2)nc2ccccc12` [Example 75, 4-[(S)-4-Carboxy-2-({4-[2-((2S,4R)-2-ethoxycarbonyl-4-hydroxy-pyrrolidin-1-yl)-2-oxo-ethoxy]-quinoline-2-carbonyl}-amino)-butyryl]-piperazine-1-carboxylic acid ethyl ester] gave an IC50 ([1]; Platelet, 0.1 h) of 190 nM.
`CCOC(=O)N1CCN(C(=O)[C@H](CCC(=O)O)NC(=O)c2cc(OCC(=O)N3CCC[C@H]3C(=O)NCC(F)(F)F)c3ccccc3n2)CC1` [Example 121, 4-{(S)-4-Carboxy-2-[(4-{2-oxo-2-[(S)-2-(2,2,2-trifluoro-ethylcarbamoyl)-pyrrolidin-1-yl]-ethoxy}-quinoline-2-carbonyl)-amino]-butyryl}-piperazine-1-carboxylic acid ethyl ester] showed an IC50 [2] of 67 nM.
Work on `CCOC(=O)N1CCN(C(=O)[C@H](CCC(=O)O)NC(=O)c2cc(OCC(=O)N3CCC[C@H]3C(=O)NC3CCC3)c3cc(F)c(F)cc3n2)CC1` [Example 196, 4-[(S)-4-Carboxy-2-({4-[2-((S)-2-cyclobutylcarbamoyl-pyrrolidin-1-yl)-2-oxo-ethoxy]-6,7-difluoro-quinoline-2-carbonyl}-amino)-butyryl]-piperazine-1-carboxylic acid ethyl ester] yielded an IC50 [2] of 65 nM.
Work on `CCOC(=O)N1CCN(C(=O)[C@H](CCC(=O)O)NC(=O)c2cc(O[C@H](C)C(=O)N3CCC[C@H]3C(=O)NC3CCCC3)c3ccc(C)cc3n2)CC1` [Example 294, 4-[(S)-4-Carboxy-2-({4-[(R)-2-((S)-2-cyclopentylcarbamoyl-pyrrolidin-1-yl)-1-methyl-2-oxo-ethoxy]-7-methyl-quinoline-2-carbonyl}-amino)-butyryl]-piperazine-1-carboxylic acid ethyl ester] yielded an IC50 ([1]; Platelet, 0.1 h) of 30 nM.
Compound `CCOC(=O)N1CCN(C(=O)[C@H](CCC(=O)O)NC(=O)c2cc(OCC(=O)N3CCCC3c3ccco3)c3ccccc3n2)CC1` (stereo partly drawn) [Example 317, 4-[(S)-4-Carboxy-2-({4-[2-(2-furan-2-yl-pyrrolidin-1-yl)-2-oxo-ethoxy]-quinoline-2-carbonyl}-amino)-butyryl]-piperazine-1-carboxylic acid ethyl ester] has an IC50 ([1]; Platelet, 0.1 h) of 290 nM.
`CCCCOC(=O)N1CCN(C(=O)CNC(=O)c2cc(OCC(=O)N3CCC[C@H]3C(=O)NC3CCC3)c3ccc(C)cc3n2)CC1` [Example 435, 4-[2-({4-[2-((S)-2-Cyclobutylcarbamoyl-pyrrolidin-1-yl)-2-oxo-ethoxy]-7-methyl-quinoline-2-carbonyl}-amino)-acetyl]-piperazine-1-carboxylic acid butyl ester] was tested, and the IC50 ([1]; Platelet, 0.1 h) was 30 nM.
`CCCCOC(=O)N1CCN(C(=O)[C@H](CCC(=O)O)NC(=O)c2cc(OCC(=O)N3CCC[C@H]3c3ccccc3)c3ccc(C)cc3n2)CC1` [Example 481, 4-[(S)-4-Carboxy-2-({7-methyl-4-[2-oxo-2-((S)-2-phenyl-pyrrolidin-1-yl)-ethoxy]-quinoline-2-carbonyl}-amino)-butyryl]-piperazine-1-carboxylic acid butyl ester] gave an IC50 ([1]; Platelet, 0.1 h) of 80 nM.
In the case of `CCCCOC(=O)N1CCN(C(=O)[C@H](CCOC)NC(=O)c2cc(OCC(=O)N3CCC[C@H]3C(=O)NC3CCC3)c3ccc(C)cc3n2)CC1` [Example 521, 4-[(S)-2-({4-[2-((S)-2-Cyclobutylcarbamoyl-pyrrolidin-1-yl)-2-oxo-ethoxy]-7-methyl-quinoline-2-carbonyl}-amino)-4-methoxy-butyryl]-piperazine-1-carboxylic acid butyl ester], the IC50 ([1]; Platelet, 0.1 h) is reported as 120 nM.
`CCCCOC(=O)N1CCN(C(=O)CNC(=O)c2cc(OCC(=O)N3CCC[C@H]3C(=O)NC3CCCC3)c3ccc(C)cc3n2)CC1` [Example 594, 4-[2-({4-[2-((S)-2-Cyclopentylcarbamoyl-pyrrolidin-1-yl)-2-oxo-ethoxy]-7-methyl-quinoline-2-carbonyl}-amino)-acetyl]-piperazine-1-carboxylic acid butyl ester] was tested, and the IC50 ([1]; Platelet, 0.1 h) was 20 nM.
With `CCCCOC(=O)N1CCN(C(=O)CNC(=O)c2cc(OCC(=O)N3C[C@H](O)C[C@H]3C(=O)NC3CCC3)c3ccc(C)cc3n2)CC1` [Example 689, 4-[2-({4-[2-((2S,4R)-2-Cyclobutylcarbamoyl-4-hydroxy-pyrrolidin-1-yl)-2-oxo-ethoxy]-7-methyl-quinoline-2-carbonyl}-amino)-acetyl]-piperazine-1-carboxylic acid butyl ester] the IC50 ([1]; Platelet, 0.1 h) was 0.6 nM.
For `CCCCOC(=O)N1CCN(C(=O)[C@H](CCc2nnn(C)n2)NC(=O)c2cc(OCC(=O)N3CCC[C@H]3C(=O)NC3CCC3)c3ccc(C)cc3n2)CC1` [Example 693, 4-[(S)-2-({4-[2-((S)-2-Cyclobutylcarbamoyl-pyrrolidin-1-yl)-2-oxo-ethoxy]-7-methyl-quinoline-2-carbonyl}-amino)-4-(2-methyl-2H-tetrazol-5-yl)-butyryl]-piperazine-1-carboxylic acid butyl ester], the IC50 ([1]; Platelet, 0.1 h) was 77 nM.
